Test results published in ChEMBL document CHEMBL4007390, “Design, synthesis and biological evaluation of indolin-2-one-based derivatives as potent, selective and efficacious inhibitors of FMS-like tyrosine kinase3 (FLT3)” (Eur J Med Chem, 2017).

What was measured:
[1] = target: Serine/threonine-protein kinase Nek6 (Homo sapiens) (UniProt Q9HC98); assay: Inhibition of human NEK6 at 0.1 uM relative to control
[2] = target: Vascular endothelial growth factor receptor 1 (Homo sapiens) (UniProt P17948); assay: Inhibition of human VEGFR1 at 0.1 uM relative to control
[3] = target: Mitogen-activated protein kinase 1 (Homo sapiens) (UniProt P28482); assay: Inhibition of human MAPK1 at 0.1 uM relative to control
Sequence of Mitogen-activated protein kinase 1 (Homo sapiens) (P28482 whole entry): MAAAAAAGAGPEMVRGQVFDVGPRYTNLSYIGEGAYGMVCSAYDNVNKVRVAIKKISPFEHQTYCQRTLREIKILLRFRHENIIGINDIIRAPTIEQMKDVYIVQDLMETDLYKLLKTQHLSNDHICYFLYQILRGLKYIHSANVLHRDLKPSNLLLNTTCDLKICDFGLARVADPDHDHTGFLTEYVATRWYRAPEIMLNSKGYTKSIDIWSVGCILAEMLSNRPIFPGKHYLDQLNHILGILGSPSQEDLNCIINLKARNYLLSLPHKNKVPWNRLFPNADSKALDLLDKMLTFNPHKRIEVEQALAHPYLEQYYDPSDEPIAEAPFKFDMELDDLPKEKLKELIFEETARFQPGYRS

[4] = target: T1, Mast/stem cell growth factor receptor Kit (Homo sapiens, UniProt P10721); assay: Inhibition of human KIT
T1 sequence (P10721 whole entry): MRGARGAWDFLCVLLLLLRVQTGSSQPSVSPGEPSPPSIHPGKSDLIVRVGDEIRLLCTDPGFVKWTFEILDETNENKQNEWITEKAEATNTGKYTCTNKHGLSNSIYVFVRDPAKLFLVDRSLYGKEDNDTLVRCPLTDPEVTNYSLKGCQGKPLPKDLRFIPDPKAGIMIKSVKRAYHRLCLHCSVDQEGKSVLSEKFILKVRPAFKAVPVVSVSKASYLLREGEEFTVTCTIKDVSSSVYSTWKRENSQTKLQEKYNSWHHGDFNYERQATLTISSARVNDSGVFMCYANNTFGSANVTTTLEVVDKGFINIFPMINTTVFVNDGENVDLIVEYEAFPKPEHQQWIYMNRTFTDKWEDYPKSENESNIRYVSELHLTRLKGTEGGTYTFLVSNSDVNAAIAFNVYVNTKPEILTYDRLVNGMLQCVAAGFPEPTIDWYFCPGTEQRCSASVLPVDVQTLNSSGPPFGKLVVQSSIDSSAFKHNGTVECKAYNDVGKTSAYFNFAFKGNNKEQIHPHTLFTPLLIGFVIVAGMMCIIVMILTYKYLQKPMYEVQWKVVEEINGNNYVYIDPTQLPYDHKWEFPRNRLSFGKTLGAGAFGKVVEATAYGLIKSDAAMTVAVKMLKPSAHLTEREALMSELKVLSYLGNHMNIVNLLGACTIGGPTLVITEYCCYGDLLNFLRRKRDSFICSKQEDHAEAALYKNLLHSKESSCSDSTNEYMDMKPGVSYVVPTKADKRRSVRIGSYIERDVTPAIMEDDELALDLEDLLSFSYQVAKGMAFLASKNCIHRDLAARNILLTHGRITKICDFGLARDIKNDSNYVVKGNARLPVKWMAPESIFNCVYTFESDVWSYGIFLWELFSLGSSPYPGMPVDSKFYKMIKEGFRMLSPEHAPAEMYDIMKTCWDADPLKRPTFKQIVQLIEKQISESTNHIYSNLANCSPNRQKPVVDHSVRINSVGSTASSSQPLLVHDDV

[5] = target: AMP-activated protein kinase (AMPK) alpha-1/beta-1/gamma-1 (Homo sapiens) (UniProt P54619+Q9Y478+Q13131); assay: Inhibition of human AMPK alpha1/beta1/gamma1 at 0.1 uM relative to control; type: protein-complex assay
[6] = target: Cyclin-dependent kinase 2 (Homo sapiens) (UniProt P24941); assay: Inhibition of human CDK2 at 0.1 uM relative to control
Cytochrome P450 2C9 = Cytochrome P450 2C9 (Homo sapiens, UniProt P11712); assay: Inhibition of microsomal CYP2C9 (unknown origin) using diclofenac as substrate preincubated for 5 mins followed by NADPH addition by LC-MS/MS analysis; type: ADME
[7] = target: Hepatocyte growth factor receptor (Homo sapiens) (UniProt P08581); assay: Inhibition of human c-MET at 0.1 uM relative to control
MV4-11 [8] = assay: Antitumor activity against human MV4-11 cells xenografted in Harlan nude mouse assessed as tumor growth inhibition at 10 mg/kg, ig bid for 20 days relative to control; type: functional; details: MV4-11, po, 480 h, read-out: TGI
[9] = tested on: Platelet-derived growth factor receptor alpha (Homo sapiens), P16234 [V561D]; assay: Inhibition of human PDGFRalpha V561D mutant at 0.1 uM relative to control
[10] = tested on: RAF proto-oncogene serine/threonine-protein kinase (Homo sapiens), P04049 [Y340D,Y341D]; assay: Inhibition of human RAF1 Y340D/Y341D double mutant at 0.1 uM relative to control
Sequence of RAF proto-oncogene serine/threonine-protein kinase (Homo sapiens), P04049 [Y340D,Y341D] (P04049 whole entry Y340D/Y341D): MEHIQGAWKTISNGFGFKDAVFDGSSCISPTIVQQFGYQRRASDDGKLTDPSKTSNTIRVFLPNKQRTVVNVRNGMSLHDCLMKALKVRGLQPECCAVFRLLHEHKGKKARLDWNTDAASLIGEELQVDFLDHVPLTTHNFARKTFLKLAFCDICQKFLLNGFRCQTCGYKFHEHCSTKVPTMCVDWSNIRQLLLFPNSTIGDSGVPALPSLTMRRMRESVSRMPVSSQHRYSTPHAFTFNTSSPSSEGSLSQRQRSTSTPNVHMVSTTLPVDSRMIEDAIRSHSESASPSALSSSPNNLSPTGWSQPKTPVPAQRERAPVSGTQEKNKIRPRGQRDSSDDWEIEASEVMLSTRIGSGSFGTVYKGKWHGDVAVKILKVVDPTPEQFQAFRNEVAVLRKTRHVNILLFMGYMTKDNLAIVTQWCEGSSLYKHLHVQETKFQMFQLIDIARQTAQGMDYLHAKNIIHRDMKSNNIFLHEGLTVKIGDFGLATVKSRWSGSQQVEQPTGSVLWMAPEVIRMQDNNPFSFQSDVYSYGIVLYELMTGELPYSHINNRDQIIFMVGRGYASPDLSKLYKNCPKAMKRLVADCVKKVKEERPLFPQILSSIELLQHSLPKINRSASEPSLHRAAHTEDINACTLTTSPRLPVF

NCI-H2228 = assay: Antiproliferative activity against human NCI-H2228 cells harboring ALK after 72 hrs by MTS assay; type: functional, cell-based; details: NCI-H2228, 72 h
[11] = target: Ribosomal protein S6 kinase beta-1 (Homo sapiens) (UniProt P23443); assay: Inhibition of human RPS6KB1 at 0.1 uM relative to control
[12] = target: Tyrosine-protein kinase ZAP-70 (Homo sapiens) (UniProt P43403); assay: Inhibition of human ZAP70 at 0.1 uM relative to control
Homo sapiens = organism: Homo sapiens; assay: Inhibition of human FLT3 ITD mutant at 0.1 uM relative to control
[13] = target: Serine/threonine-protein kinase PAK 4 (Homo sapiens) (UniProt O96013); assay: Inhibition of human PAK4 at 0.1 uM relative to control
MOLM-13 = assay: Antiproliferative activity against human MOLM13 cells harboring FLT3 ITD mutant after 72 hrs by MTS assay; details: MOLM-13, 72 h
Cytochrome P450 3A4 [14] = target: T2, Cytochrome P450 3A4 (Homo sapiens, UniProt P08684); assay: Inhibition of microsomal CYP3A4 (unknown origin) using testosterone as substrate preincubated for 5 mins followed by NADPH addition by LC-MS/MS analysis; type: ADME
T2 sequence (P08684 whole entry): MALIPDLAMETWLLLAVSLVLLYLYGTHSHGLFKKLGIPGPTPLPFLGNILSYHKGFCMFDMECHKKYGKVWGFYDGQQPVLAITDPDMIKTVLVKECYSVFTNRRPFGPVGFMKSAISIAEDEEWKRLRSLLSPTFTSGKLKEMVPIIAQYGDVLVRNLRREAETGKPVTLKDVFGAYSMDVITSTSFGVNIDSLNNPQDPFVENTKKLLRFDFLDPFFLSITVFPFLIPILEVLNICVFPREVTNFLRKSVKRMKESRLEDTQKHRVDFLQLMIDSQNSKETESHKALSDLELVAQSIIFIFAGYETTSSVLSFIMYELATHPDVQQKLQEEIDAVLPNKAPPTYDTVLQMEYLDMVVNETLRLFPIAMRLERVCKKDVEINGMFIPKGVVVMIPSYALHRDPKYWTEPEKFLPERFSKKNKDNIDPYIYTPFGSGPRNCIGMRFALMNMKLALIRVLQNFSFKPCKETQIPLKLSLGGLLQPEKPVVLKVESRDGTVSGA

Cytochrome P450 3A4 [15] = target: T2, Cytochrome P450 3A4; assay: Inhibition of microsomal CYP3A4 (unknown origin) using midazolam as substrate preincubated for 5 mins followed by NADPH addition by LC-MS/MS analysis; type: ADME
[16] = target: Tyrosine-protein kinase JAK2 (Homo sapiens) (UniProt O60674); assay: Inhibition of human JAK2 at 0.1 uM relative to control
MV4-11 [17] = assay: Antitumor activity against human MV4-11 cells xenografted in Harlan nude mouse assessed as tumor growth inhibition at 40 mg/kg, ig bid for 20 days relative to control; type: functional; details: MV4-11, po, 480 h, read-out: TGI
HUVEC = assay: Antiproliferative activity against HUVEC after 72 hrs by MTS assay; type: cell-based; details: Homo sapiens
MV4-11 [18] = assay: Antitumor activity against human MV4-11 cells xenografted in Harlan nude mouse assessed as tumor growth inhibition at 80 mg/kg, ig bid for 20 days relative to control; type: functional; details: MV4-11, po, 480 h, read-out: TGI
Mus musculus = assay: Toxicity in Harlan nude mouse xenografted with human MV4-11 cells assessed as mouse death at 5 to 80 mg/kg, ig bid for 20 days; type: organism-based; details: in vivo, po, 480 h
[19] = Oral bioavailability in Balb/c nude mouse at 40 mg/kg via gavage by LC-MS/MS analysis; type: ADME, organism-based; details: in vivo
Jurkat = assay: Antiproliferative activity against FLT3 negative human Jurkat cells after 72 hrs by MTS assay; type: functional, cell-based
[20] = AUC (0 to infinity) in Balb/c nude mouse at 40 mg/kg, po via gavage by LC-MS/MS analysis; type: ADME, organism-based; set-up: dose 40 mg/kg, time infinity, route oral; details: in vivo
[21] = target: Receptor-type tyrosine-protein kinase FLT3 (Homo sapiens, UniProt P36888, D835Y); assay: Inhibition of human FLT3 D835Y mutant
[22] = target: Tyrosine-protein kinase Lck (Homo sapiens) (UniProt P06239); assay: Inhibition of human LCK at 0.1 uM relative to control
Sequence of Tyrosine-protein kinase Lck (Homo sapiens) (P06239 2-509 limits assumed): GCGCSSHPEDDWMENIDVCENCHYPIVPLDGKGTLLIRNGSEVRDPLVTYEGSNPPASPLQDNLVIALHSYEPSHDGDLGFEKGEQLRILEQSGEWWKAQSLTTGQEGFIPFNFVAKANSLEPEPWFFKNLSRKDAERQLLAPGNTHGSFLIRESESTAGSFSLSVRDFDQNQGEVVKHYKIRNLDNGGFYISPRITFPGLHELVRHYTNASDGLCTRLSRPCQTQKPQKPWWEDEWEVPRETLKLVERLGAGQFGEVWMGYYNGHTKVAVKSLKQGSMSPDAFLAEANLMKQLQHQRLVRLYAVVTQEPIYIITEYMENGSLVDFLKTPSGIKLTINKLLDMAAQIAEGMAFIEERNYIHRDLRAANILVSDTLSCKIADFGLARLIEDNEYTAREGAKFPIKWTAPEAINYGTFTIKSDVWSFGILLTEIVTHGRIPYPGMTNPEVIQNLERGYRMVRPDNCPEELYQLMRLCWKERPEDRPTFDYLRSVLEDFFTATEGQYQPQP

[23] = target: T1, Mast/stem cell growth factor receptor Kit; assay: Inhibition of human KIT at 0.1 uM relative to control
[24] = tested on: Mast/stem cell growth factor receptor Kit (Homo sapiens), P10721 [T670I]; assay: Inhibition of human KIT T670I mutant at 0.1 uM relative to control
Sequence of Mast/stem cell growth factor receptor Kit (Homo sapiens), P10721 [T670I] (P10721 whole entry T670I, the tested form may be a part): as the sequence (P10721 whole entry) above, with T670I counted along it

[25] = target: Discoidin domain-containing receptor 2 (Homo sapiens) (UniProt Q16832); assay: Inhibition of human DDR2 at 0.1 uM relative to control
[26] = target: Tyrosine-protein kinase receptor UFO (Homo sapiens) (UniProt P30530); assay: Inhibition of human AXL at 0.1 uM relative to control
[27] = target: Tyrosine-protein kinase SYK (Homo sapiens) (UniProt P43405); assay: Inhibition of human SYK at 0.1 uM relative to control
[28] = target: Proto-oncogene tyrosine-protein kinase receptor Ret (Homo sapiens) (UniProt P07949); assay: Inhibition of human RET at 0.1 uM relative to control
Cytochrome P450 1A2 = Cytochrome P450 1A2 (Homo sapiens, UniProt P05177); assay: Inhibition of microsomal CYP1A2 (unknown origin) using phenacetin as substrate preincubated for 5 mins followed by NADPH addition by LC-MS/MS analysis; type: ADME
[29] = target: Ephrin type-B receptor 4 (Homo sapiens) (UniProt P54760); assay: Inhibition of human EPHB4 at 0.1 uM relative to control
Sequence of Ephrin type-B receptor 4 (Homo sapiens) (P54760 whole entry): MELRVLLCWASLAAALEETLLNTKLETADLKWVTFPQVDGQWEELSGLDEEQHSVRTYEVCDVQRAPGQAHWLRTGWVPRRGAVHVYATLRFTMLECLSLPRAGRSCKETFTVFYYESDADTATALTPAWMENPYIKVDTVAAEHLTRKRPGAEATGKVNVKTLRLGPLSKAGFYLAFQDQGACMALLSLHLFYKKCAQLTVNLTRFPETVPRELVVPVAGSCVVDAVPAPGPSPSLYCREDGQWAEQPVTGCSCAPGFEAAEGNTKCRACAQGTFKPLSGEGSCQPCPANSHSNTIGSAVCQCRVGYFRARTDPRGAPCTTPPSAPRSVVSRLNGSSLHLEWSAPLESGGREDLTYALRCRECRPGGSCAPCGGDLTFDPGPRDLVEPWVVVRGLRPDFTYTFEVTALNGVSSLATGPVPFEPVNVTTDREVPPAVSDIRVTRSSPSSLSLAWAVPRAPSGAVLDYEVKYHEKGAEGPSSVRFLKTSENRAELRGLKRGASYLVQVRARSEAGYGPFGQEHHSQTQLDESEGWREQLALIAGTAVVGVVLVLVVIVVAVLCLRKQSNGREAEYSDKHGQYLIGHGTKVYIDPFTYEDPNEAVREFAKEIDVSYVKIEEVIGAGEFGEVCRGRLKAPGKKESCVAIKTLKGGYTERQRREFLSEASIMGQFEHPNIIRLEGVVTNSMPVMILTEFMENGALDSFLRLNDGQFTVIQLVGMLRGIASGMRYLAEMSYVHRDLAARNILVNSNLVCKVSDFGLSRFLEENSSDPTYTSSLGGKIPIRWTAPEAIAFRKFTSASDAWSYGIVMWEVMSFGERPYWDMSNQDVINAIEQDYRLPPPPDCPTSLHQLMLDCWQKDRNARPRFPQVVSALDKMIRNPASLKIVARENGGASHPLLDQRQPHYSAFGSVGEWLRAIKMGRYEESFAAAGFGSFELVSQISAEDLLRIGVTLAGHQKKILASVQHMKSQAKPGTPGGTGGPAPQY

COLO 205 = assay: Antiproliferative activity against human COLO205 cells harboring B-Raf after 72 hrs by MTS assay; type: functional, cell-based; details: COLO 205, 72 h
[30] = target: Serine/threonine-protein kinase PLK1 (Homo sapiens) (UniProt P53350); assay: Inhibition of human PLK1 at 0.1 uM relative to control
Sequence of Serine/threonine-protein kinase PLK1 (Homo sapiens) (P53350 whole entry): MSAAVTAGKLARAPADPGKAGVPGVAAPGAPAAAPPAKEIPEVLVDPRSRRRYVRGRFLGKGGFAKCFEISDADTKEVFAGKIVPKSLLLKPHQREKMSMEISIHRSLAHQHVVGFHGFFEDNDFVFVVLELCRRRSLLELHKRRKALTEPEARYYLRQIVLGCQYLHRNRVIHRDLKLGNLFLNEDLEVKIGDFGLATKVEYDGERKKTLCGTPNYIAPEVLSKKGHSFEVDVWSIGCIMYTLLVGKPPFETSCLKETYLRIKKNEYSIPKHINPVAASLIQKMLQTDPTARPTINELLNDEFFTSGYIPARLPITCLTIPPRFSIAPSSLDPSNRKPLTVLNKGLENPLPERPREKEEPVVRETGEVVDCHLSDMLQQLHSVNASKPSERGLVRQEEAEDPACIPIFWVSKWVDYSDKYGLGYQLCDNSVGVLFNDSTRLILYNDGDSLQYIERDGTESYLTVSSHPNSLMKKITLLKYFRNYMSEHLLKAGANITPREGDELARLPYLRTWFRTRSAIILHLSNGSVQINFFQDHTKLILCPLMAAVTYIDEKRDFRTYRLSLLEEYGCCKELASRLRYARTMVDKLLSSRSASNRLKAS

[31] = target: Aurora kinase A (Homo sapiens) (UniProt O14965); assay: Inhibition of human Aurora A at 0.1 uM relative to control

Sequence of Serine/threonine-protein kinase Nek6 (Homo sapiens) (Q9HC98 whole entry): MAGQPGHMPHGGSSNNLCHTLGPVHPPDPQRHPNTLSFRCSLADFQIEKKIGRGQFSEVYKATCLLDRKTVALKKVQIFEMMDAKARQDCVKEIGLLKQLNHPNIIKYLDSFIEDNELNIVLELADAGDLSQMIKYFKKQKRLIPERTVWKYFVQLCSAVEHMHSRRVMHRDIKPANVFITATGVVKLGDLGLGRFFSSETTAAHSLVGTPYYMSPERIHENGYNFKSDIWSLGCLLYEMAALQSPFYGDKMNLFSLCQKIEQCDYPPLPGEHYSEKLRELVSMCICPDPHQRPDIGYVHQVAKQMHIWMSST

Cc1[nH]c(/C=C2\C(=O)Nc3ccc(F)cc32)c(C)c1NC(=O)[C@H]1CCCN1.Cl showed an inhibition [1] of 8%, an inhibition [2] of 30% and an inhibition [3] of -7%. The IC50 [4] was 0.227 µM, the inhibition [5] was 38% and the inhibition [6] was 8%. The IC50 (Cytochrome P450 2C9) was over 33 µM, the inhibition [7] was -8% and the inhibition in vivo at 10 mg/kg (MV4-11 [8]) was 88.7%. It also gave an inhibition [9] of 82%, an inhibition [10] of 18% and an IC50 (NCI-H2228) of 3.44 µM. The inhibition [11] was 8%, the inhibition [12] was 0% and the inhibition (Homo sapiens) was 105%. For the same compound, the inhibition [13] was 14%, the IC50 (MOLM-13) was 0.0236 µM and the IC50 (Cytochrome P450 3A4 [14]) was over 33 µM. For the same compound, the IC50 (Cytochrome P450 3A4 [15]) was over 33 µM, the inhibition [16] was -4% and the inhibition in vivo at 40 mg/kg (MV4-11 [17]) was 100%. The IC50 (HUVEC) was 11.3 µM, the inhibition in vivo at 80 mg/kg (MV4-11 [18]) was 98.9% and the Activity (Mus musculus) was “Non-Toxic”. The bioavailability [19] was 59%, the IC50 (Jurkat) was 4.18 µM and the AUC(0-inf) [20] was 3070 ng·h/mL. The IC50 [21] was 0.0027 µM, the inhibition [22] was 43% and the inhibition [23] was 85%. For the same compound, the inhibition [24] was 77%, the inhibition [25] was 7% and the inhibition [26] was 44%. The inhibition [27] was -3%, the inhibition [28] was 88% and the IC50 (Cytochrome P450 1A2) was 17.7 µM. For the same compound, the inhibition [29] was -4%, the IC50 (COLO 205) was 6.6 µM and the inhibition [30] was -3%. For the same compound, the inhibition [31] was 2%.
